According to patent publication US20230265116A1, “DEGRADATION OF (EGFR) BY CONJUGATION OF EGFR INHIBITORS WITH E3 LIGASE LIGAND AND METHODS OF USE” (BEIGENE, LTD., priority 2020, published 2023):

Tests used:
Assay type in all cases: cell-based
[1] = biological target: T1, EGFR L858R/T790M (H1975-clone #36, homozygous) (Homo sapiens, UniProt P00533, L858R/T790M); assay: EGFR degradation HTRF assay, H1975-clone #36 cells; conditions: H1975 #36, 16h treatment; for Dmax: NCI-H1975, maximum percentage of degradation
T1 construct: designed to specifically target WT EGFR but preserve the L858R/T790M copy; host or cells: H1975-clone #36
T1 sequence (P00533 25-1210 T790M/L858R): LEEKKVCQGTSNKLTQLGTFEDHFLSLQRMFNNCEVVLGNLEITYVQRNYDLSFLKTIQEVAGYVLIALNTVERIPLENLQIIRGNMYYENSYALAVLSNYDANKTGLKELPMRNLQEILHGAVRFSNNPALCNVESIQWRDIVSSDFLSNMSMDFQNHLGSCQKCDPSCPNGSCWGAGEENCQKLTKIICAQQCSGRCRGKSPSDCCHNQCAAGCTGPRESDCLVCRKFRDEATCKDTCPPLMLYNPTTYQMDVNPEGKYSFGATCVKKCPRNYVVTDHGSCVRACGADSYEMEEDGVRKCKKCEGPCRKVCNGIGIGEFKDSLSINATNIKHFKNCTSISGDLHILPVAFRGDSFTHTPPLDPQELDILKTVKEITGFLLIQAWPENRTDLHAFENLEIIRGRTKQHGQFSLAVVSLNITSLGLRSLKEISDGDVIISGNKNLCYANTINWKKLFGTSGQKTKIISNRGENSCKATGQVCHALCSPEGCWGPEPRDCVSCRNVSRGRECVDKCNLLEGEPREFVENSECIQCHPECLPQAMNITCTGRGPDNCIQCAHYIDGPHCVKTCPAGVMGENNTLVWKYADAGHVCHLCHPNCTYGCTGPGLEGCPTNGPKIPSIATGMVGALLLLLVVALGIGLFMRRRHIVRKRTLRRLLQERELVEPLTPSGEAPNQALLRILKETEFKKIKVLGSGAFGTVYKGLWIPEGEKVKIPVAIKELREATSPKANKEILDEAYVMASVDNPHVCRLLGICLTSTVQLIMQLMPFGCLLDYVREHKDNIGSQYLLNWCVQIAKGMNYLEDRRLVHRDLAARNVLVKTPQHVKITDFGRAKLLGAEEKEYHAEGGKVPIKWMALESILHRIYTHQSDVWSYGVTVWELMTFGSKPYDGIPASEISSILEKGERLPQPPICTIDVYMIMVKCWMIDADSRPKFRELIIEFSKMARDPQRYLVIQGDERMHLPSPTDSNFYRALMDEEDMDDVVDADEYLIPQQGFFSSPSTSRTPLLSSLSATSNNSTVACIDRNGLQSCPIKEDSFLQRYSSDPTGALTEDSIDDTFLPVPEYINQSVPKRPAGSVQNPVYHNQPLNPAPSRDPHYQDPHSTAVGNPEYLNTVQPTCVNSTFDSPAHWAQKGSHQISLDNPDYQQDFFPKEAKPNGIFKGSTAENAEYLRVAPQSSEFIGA
Summary of the method: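 Eight-point, 5-fold series starting at 10 uM (0.2% DMSO) applied for 16 h, 37 °C, to a WT-EGFR-knockout H1975 clone carrying only L858R/T790M. Lysates read by HTRF overnight. Degradation percentage relative to DMSO control fitted for DC50, with Dmax as maximum degradation.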

[2] = test system: EGFR Del19/T790M/C797S (BaF3-DTC cells); assay: EGFR degradation HTRF assay, BaF3-DTC cells; conditions: 16h treatment; for DTC Dmax (%): maximum percentage of degradation; for DC50: read-out: DTC DC50
Summary of the method: (§1)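 EGFR remaining after a 16 h, 37 °C exposure (8 doses, 5-fold steps from 10 uM final, 0.2% DMSO) was quantified by HTRF antibodies in cell lysate. Percent inhibition relative to DMSO control was fitted by four-parameter logistic to give DC50; Dmax denotes maximal degradation.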

[3] = biological target: T2, EGFR L858R/T790M/C797S (BaF3-LTC cells) (Homo sapiens, UniProt P00533, C797S/L858R/T790M); assay: EGFR degradation HTRF assay, BaF3-LTC cells; conditions: BaF3-LTC, 16h treatment; for Dmax: maximum percentage of degradation, read-out: LTC Dmax (%); for DC50: read-out: LTC DC50
T2 construct: expressed in transfected cells; host or cells: BaF3
T2 sequence (P00533 25-1210 T790M/C797S/L858R): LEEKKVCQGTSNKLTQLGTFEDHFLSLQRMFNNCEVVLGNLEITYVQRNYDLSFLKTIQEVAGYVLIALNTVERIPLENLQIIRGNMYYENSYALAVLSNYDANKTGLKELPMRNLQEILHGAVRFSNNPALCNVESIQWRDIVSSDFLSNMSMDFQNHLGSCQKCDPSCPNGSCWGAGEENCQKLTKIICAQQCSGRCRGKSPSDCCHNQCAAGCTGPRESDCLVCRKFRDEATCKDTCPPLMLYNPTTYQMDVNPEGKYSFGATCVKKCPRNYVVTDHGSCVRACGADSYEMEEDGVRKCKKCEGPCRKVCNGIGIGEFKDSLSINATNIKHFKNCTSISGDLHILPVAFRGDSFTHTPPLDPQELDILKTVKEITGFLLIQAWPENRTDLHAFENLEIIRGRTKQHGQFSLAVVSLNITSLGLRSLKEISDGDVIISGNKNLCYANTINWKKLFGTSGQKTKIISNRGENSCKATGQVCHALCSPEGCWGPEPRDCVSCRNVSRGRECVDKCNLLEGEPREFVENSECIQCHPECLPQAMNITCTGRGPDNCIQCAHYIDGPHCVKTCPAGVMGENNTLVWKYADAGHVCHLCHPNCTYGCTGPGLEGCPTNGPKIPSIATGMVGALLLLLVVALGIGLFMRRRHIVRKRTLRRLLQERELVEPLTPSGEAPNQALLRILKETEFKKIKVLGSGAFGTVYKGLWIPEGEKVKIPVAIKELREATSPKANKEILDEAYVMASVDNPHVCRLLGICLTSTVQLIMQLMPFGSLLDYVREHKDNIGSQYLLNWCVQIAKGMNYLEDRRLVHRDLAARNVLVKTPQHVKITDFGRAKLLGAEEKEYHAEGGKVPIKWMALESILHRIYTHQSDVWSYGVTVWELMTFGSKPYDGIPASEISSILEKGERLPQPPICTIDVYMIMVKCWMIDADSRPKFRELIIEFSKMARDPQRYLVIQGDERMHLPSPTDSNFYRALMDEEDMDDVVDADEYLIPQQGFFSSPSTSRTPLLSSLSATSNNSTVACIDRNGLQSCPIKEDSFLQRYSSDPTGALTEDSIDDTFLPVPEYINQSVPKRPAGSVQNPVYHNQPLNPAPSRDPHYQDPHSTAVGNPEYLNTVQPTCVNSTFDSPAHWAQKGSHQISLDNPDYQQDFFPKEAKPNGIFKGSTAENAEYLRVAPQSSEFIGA
Summary of the method: as §1

EGFR WT (BaF3 WT cells) = biological target: T3, EGFR WT (BaF3 WT cells) (Homo sapiens, UniProt P00533); assay: EGFR degradation HTRF assay, BaF3 WT cells; conditions: BaF3 WT, 16h treatment; for Dmax: maximum percentage of degradation, read-out: WT Dmax (%)
T3 construct: expressed in transfected cells; host or cells: BaF3
T3 sequence (P00533 25-1210): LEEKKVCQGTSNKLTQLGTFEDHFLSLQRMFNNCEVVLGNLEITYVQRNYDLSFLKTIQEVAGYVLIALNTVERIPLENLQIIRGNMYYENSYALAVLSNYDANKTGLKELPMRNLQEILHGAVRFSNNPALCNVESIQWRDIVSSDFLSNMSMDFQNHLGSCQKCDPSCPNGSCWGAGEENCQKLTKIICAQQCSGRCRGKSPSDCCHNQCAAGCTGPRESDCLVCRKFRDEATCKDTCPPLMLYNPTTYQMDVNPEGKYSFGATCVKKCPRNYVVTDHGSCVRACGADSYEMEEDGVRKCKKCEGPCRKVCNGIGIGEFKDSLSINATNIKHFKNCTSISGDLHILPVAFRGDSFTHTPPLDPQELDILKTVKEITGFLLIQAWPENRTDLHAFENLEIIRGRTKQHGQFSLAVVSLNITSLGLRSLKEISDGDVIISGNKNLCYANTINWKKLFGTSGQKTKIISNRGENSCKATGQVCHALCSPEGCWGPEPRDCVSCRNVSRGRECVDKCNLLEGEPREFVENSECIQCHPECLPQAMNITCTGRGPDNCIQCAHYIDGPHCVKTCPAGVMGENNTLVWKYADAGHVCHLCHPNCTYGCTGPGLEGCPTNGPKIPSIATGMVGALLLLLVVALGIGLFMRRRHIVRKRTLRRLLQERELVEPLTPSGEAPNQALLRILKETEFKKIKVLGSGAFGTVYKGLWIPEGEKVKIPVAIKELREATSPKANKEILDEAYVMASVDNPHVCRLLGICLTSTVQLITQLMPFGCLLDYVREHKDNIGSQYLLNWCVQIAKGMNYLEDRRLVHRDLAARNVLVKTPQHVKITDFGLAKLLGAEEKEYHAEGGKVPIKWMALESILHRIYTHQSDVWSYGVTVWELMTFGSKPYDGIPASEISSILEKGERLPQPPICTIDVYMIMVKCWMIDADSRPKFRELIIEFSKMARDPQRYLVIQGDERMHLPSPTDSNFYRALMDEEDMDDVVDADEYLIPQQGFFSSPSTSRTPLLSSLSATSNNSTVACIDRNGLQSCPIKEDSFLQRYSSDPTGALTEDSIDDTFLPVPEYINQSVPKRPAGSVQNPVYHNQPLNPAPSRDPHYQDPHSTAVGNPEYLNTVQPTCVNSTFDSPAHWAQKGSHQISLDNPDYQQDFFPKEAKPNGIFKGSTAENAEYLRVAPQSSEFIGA
Protocol: BaF3 WT(wild type), BaF3-LTC(L858R/T790M/C797S) and BaF3-DTC(Del19/T790M/C797S) cells are treated with compounds diluted in 0.2% DMSO cell culture medium and incubate for 16h, 37° C., 5% CO2, H1975-#36, H1975-#28, H1975-#23 and HCC827 cells are treated with compounds diluted in 0.2% DMSO cell culture medium on day 2, incubate for 16h, 37° C., 5% CO2.the final concentriation of compounds in all assay is start with 10 uM, 5-fold dilution, total 8 doses were included.
After 16h treatment, add HTRF lysis buffer to each well; seal the plate and incubate 1 hour at room temperature on a plate shaker; Once the cells are lysed, 16 μL of cell lysate are transferred to a PE 384-well HTRF detection plate; 4 μL of pre-mixed HTRF antibodies are added to each well; Cover the plate with a plate sealer, spin 1000 rpm for 1 min, Incubate overnight at room temperature; Read on BMG PheraStar with HTRF protocol (337 nm-665 nm-620 nm).
The inhibition (degradation) percentage of the compound was calculated by the following equation: Inhibition percentage of Compound=100-100×(Signal-low control)/(High control-low control), wherein signal=each test compound group
High control=Cell group with added DMSO and without compound, indicating microplate readings without EGFR degradation;
Dmax is the maximum percentage of inhibition (degradation).
The IC50 (DC50) value of a compound can be obtained by fitting the following equation
Y=Bottom+(TOP−Bottom)/(1+((IC50/X)^hillslope))
Wherein, X and Y are known values, and IC50, Hillslope, Top and Bottom are the parameters obtained by fitting with software. Y is the inhibition percentage (calculated from the equation), X is the concentration of the compound; IC50 is the concentration of the compound when the 50% inhibition is reached. The smaller the IC50 value is, the stronger the inhibitory ability of the compound is. Vice versa, the higher the IC50 value is, the weaker the inhibitory ability of the compound is; Hillslope represents the slope of the fitted curve, generally around 1*; Bottom represents the minimum value of the curve obtained by data fitting, which is generally 0%±20%; Top represents the maximum value of the curve obtained by data fitting, which is generally 100%±20%. The experimental data were fitted by calculating and analyzing with Dotmatics data analysis software.

EGFR (HCC827 cells) = biological target: T4, EGFR (HCC827 cells) (Homo sapiens, UniProt P00533, DEL746-750); assay: EGFR degradation HTRF assay, HCC827 cells; conditions: HCC827, 16h treatment; for Dmax: maximum percentage of degradation
T4 construct: endogenous in cells; host or cells: HCC827
T4 sequence (P00533 with tags, fused parts or gaps DEL746-750): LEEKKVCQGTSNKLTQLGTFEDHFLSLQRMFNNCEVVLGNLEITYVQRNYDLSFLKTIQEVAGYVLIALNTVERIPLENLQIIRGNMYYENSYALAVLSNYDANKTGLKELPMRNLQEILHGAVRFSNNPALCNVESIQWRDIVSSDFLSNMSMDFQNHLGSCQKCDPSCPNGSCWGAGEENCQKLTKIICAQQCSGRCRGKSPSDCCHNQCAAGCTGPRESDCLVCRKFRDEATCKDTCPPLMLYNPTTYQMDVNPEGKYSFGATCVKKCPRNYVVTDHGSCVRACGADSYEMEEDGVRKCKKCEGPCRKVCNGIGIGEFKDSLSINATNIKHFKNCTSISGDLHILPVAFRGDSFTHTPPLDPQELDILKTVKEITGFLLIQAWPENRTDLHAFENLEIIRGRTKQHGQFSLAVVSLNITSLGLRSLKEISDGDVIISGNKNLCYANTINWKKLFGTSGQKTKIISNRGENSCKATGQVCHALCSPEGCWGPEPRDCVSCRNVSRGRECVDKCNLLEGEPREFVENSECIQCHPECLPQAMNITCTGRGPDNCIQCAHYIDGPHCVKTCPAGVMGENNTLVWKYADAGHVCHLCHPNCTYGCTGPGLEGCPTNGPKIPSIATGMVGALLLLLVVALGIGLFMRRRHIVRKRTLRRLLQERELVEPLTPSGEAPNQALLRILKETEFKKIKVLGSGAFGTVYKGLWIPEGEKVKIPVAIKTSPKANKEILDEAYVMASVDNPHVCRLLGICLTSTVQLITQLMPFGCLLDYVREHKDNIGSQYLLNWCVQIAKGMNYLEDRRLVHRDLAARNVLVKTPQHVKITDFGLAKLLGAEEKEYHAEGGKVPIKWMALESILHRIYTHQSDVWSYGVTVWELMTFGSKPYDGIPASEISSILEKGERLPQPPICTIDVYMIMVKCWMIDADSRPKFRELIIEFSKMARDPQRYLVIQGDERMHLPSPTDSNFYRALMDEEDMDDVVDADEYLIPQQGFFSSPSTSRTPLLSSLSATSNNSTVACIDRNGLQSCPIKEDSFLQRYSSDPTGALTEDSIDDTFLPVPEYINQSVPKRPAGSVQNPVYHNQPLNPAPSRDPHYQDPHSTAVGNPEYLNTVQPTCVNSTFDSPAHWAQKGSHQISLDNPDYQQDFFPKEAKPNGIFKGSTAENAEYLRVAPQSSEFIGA
Summary of the method: as §1

CCc1cc(Nc2ncc(Br)c(Nc3ccc4nccnc4c3P(C)(C)=O)n2)c(OC)cc1N1CCC(N2CCN(CCCC3CN(c4ccc5c(c4)C(=O)N(C4CCC(=O)NC4=O)C5=O)C3)CC2)CC1 (stereo not drawn) [Example 56, 5-(3-(3-(4-(1-(4-((5-bromo-4-((5-(dimethylphosphoryl)quinoxalin-6-yl)amino)pyrimidin-2-yl)amino)-2-ethyl-5-methoxyphenyl)piperidin-4-yl)piperazin-1-yl)propyl)azetidin-1-yl)-2-(2,6-dioxopiperidin-3-yl)isoindoline-1,3-dione]
DC50 [1]: 0.0065 µM
Dmax [1]: 88.8%
DTC Dmax (%) [2]: 82.17%
DC50 [2]: 0.00952 µM
Dmax [3]: 79.5%
DC50 [3]: 0.0314 µM
DC50 (EGFR WT (BaF3 WT cells)): > 10 µM
Dmax (EGFR WT (BaF3 WT cells)): 16.9%
DC50 (EGFR (HCC827 cells)): 0.00263 µM
Dmax (EGFR (HCC827 cells)): 93.4%

CCc1cc(Nc2ncc(Br)c(Nc3ccc4nccnc4c3P(C)(C)=O)n2)c(OC)cc1N1CCC(N2CCN(CCCN3CCN(c4ccc5c(c4)C(=O)N(C4CCC(=O)NC4=O)C5=O)CC3)CC2)CC1 (stereo not drawn) [Example 60, 5-(4-(3-(4-(1-(4-((5-bromo-4-((5-(dimethylphosphoryl)quinoxalin-6-yl)amino)pyrimidin-2-yl)amino)-2-ethyl-5-methoxyphenyl)piperidin-4-yl)piperazin-1-yl)propyl)piperazin-1-yl)-2-(2,6-dioxopiperidin-3-yl)isoindoline-1,3-dione]
DC50 [1]: 0.0165 µM
Dmax [1]: 73.4%
DTC Dmax (%) [2]: 94.93%
DC50 [2]: 0.0422 µM
Dmax [3]: 91.2%
DC50 [3]: 0.089 µM
DC50 (EGFR WT (BaF3 WT cells)): 8.86 µM
Dmax (EGFR WT (BaF3 WT cells)): 51.6%
DC50 (EGFR (HCC827 cells)): 0.0048 µM
Dmax (EGFR (HCC827 cells)): 86.8%

CCc1cc(Nc2ncc(Br)c(Nc3ccc4nccnc4c3P(C)(C)=O)n2)c(OC)cc1N1CCC(N2CCN(C(=O)CCN3CCN(c4ccc5c(c4)C(=O)N(C4CCC(=O)NC4=O)C5=O)CC3)CC2)CC1 (stereo not drawn) [Example 61, 5-(4-(3-(4-(1-(4-((5-bromo-4-((5-(dimethylphosphoryl)quinoxalin-6-yl)amino)pyrimidin-2-yl)amino)-2-ethyl-5-methoxyphenyl)piperidin-4-yl)piperazin-1-yl)-3-oxopropyl)piperazin-1-yl)-2-(2,6-dioxopiperidin-3-yl)isoindoline-1,3-dione]
DC50 [1]: 0.00934 µM
Dmax [1]: 77.2%
DTC Dmax (%) [2]: 96.02%
DC50 [2]: 0.00605 µM
Dmax [3]: 90.4%
DC50 [3]: 0.0201 µM
DC50 (EGFR WT (BaF3 WT cells)): > 10 µM
Dmax (EGFR WT (BaF3 WT cells)): 22.2%
DC50 (EGFR (HCC827 cells)): 0.00284 µM
Dmax (EGFR (HCC827 cells)): 90%

CCc1cc(Nc2ncc(Br)c(Nc3ccc4nccnc4c3P(C)(C)=O)n2)c(OC)cc1N1CCC(N2CCN(C(=O)[C@@H]3CCN(c4ccc5c(c4)C(=O)N(C4CCC(=O)NC4=O)C5=O)C3)CC2)CC1 (stereo partly drawn) [Example 65, 5-((R)-3-(4-(1-(4-((5-bromo-4-((5-(dimethylphosphoryl)quinoxalin-6-yl)amino)pyrimidin-2-yl)amino)-2-ethyl-5-methoxyphenyl)piperidin-4-yl)piperazine-1-carbonyl)pyrrolidin-1-yl)-2-(2,6-dioxopiperidin-3-yl)isoindoline-1,3-dione]
DC50 [1]: 0.00231 µM
Dmax [1]: 85.6%
DTC Dmax (%) [2]: 80.45%
DC50 [2]: 0.00805 µM
Dmax [3]: 75.5%
DC50 [3]: 0.0142 µM
DC50 (EGFR WT (BaF3 WT cells)): > 10 µM
Dmax (EGFR WT (BaF3 WT cells)): 15.4%
DC50 (EGFR (HCC827 cells)): 0.00253 µM
Dmax (EGFR (HCC827 cells)): 73.9%

COc1cc(N2CCC(N3CCN(C(=O)C4CCN(CC5CCN(c6ccc7c(c6)C(=O)N(C6CCC(=O)NC6=O)C7=O)CC5)CC4)CC3)CC2)ccc1Nc1ncc(Cl)c(Nc2ccccc2P(C)(C)=O)n1 (stereo not drawn) [Example 113, 5-(4-((4-(4-(1-(4-((5-chloro-4-((2-(dimethylphosphoryl)phenyl)amino)pyrimidin-2-yl)amino)-3-methoxyphenyl)piperidin-4-yl)piperazine-1-carbonyl)piperidin-1-yl)methyl)piperidin-1-yl)-2-(2,6-dioxopiperidin-3-yl)isoindoline-1,3-dione]
DC50 [1]: 0.0053 µM
Dmax [1]: 97.3%
DTC Dmax (%) [2]: 99.16%
DC50 [2]: 0.0151 µM
Dmax [3]: 91%
DC50 [3]: 0.0772 µM
DC50 (EGFR WT (BaF3 WT cells)): > 10 µM
Dmax (EGFR WT (BaF3 WT cells)): 29.1%
DC50 (EGFR (HCC827 cells)): 0.00334 µM
Dmax (EGFR (HCC827 cells)): 89.2%

COc1cc(N2CCC(N3CCN(C(=O)CCN4CCC(c5ccc(C6CCC(=O)NC6=O)cc5)CC4)CC3)CC2)ccc1Nc1ncc(Cl)c(Nc2ccccc2N(C)S(C)(=O)=O)n1 (stereo not drawn) [Example 123, N-(2-((5-chloro-2-((4-(4-(4-(3-(4-(4-(2,6-dioxopiperidin-3-yl)phenyl)piperidin-1-yl)propanoyl)piperazin-1-yl)piperidin-1-yl)-2-methoxyphenyl)amino)pyrimidin-4-yl)amino)phenyl)-N-methylmethanesulfonamide]
DC50 [1]: 0.0124 µM
Dmax [1]: 79.7%
DTC Dmax (%) [2]: 83.94%
DC50 [2]: 0.273 µM
Dmax [3]: 21.2%
DC50 [3]: > 10 µM
DC50 (EGFR WT (BaF3 WT cells)): > 10 µM
Dmax (EGFR WT (BaF3 WT cells)): 21.6%
DC50 (EGFR (HCC827 cells)): 0.0159 µM
Dmax (EGFR (HCC827 cells)): 88.8%

COc1cc(N2CCC(N3CCN(C(=O)CCCCN4CCN(c5ccc6c(c5)C(=O)N(C5CCC(=O)NC5=O)C6=O)CC4)CC3)CC2)ccc1Nc1ncc(Cl)c(Nc2ccccc2N(C)S(C)(=O)=O)n1 (stereo not drawn) [Example 128, N-(2-((5-chloro-2-((4-(4-(4-(5-(4-(2-(2,6-dioxopiperidin-3-yl)-1,3-dioxoisoindolin-5-yl)piperazin-1-yl)pentanoyl)piperazin-1-yl)piperidin-1-yl)-2-methoxyphenyl)amino)pyrimidin-4-yl)amino)phenyl)-N-methylmethanesulfonamide]
DC50 [1]: 0.0115 µM
Dmax [1]: 85%
DTC Dmax (%) [2]: 99.67%
DC50 [2]: 0.0537 µM
Dmax [3]: 86.2%
DC50 [3]: 0.168 µM
DC50 (EGFR WT (BaF3 WT cells)): > 10 µM
Dmax (EGFR WT (BaF3 WT cells)): 15.3%
DC50 (EGFR (HCC827 cells)): 0.0032 µM
Dmax (EGFR (HCC827 cells)): 84%

CP(C)(=O)c1c(Nc2nc(Nc3ccc(N4CCN(C5CN(CCC6CCN(c7ccc(C8CCC(=O)NC8=O)c(F)c7)CC6)C5)CC4)c(F)c3)ncc2Br)ccc2nccnc12 (stereo not drawn) [Example 203, 3-(4-(4-(2-(3-(4-(4-((5-bromo-4-((5-(dimethylphosphoryl)quinoxalin-6-yl)amino)pyrimidin-2-yl)amino)-2-fluorophenyl)piperazin-1-yl)azetidin-1-yl)ethyl)piperidin-1-yl)-2-fluorophenyl)piperidine-2,6-dione]
DC50 [1]: 0.00724 µM
Dmax [1]: 95.8%
DTC Dmax (%) [2]: 92.4%
DC50 [2]: 0.0135 µM
Dmax [3]: 82.1%
DC50 [3]: 0.017 µM
DC50 (EGFR WT (BaF3 WT cells)): > 10 µM
Dmax (EGFR WT (BaF3 WT cells)): 35.3%
DC50 (EGFR (HCC827 cells)): 0.00906 µM
Dmax (EGFR (HCC827 cells)): 89.9%

CP(C)(=O)c1c(Nc2nc(Nc3ccc(N4CCN(C5CN(CC6CN(c7ccc8c(c7)C(=O)N(C7CCC(=O)NC7=O)C8=O)C6)C5)CC4)c(F)c3)ncc2Br)ccc2nccnc12 (stereo not drawn) [Example 259, 5-(3-((3-(4-(4-((5-bromo-4-((5-(dimethylphosphoryl)quinoxalin-6-yl)amino)pyrimidin-2-yl)amino)-2-fluorophenyl)piperazin-1-yl)azetidin-1-yl)methyl)azetidin-1-yl)-2-(2,6-dioxopiperidin-3-yl)isoindoline-1,3-dione]
DC50 [1]: 0.00469 µM
Dmax [1]: 99.9%
DTC Dmax (%) [2]: 95.97%
DC50 [2]: 0.00372 µM
Dmax [3]: 92.1%
DC50 [3]: 0.00704 µM
DC50 (EGFR WT (BaF3 WT cells)): > 10 µM
Dmax (EGFR WT (BaF3 WT cells)): 11.7%
DC50 (EGFR (HCC827 cells)): 0.00533 µM
Dmax (EGFR (HCC827 cells)): 81%
